Measured values taken from ChEMBL document CHEMBL1129107, “Substituted morpholine-2S-acetic acid derivatives: Sch 50911 and related compounds as novel GABAB antagonists” (Bioorg Med Chem Lett, 1996).

Assays:
[1] = Antagonistic activity was measured by the inhibition of Gamma-aminobutyric acid type B receptor binding to rat brain synaptosomes; format: subcellular
Cavia porcellus [2] = species: Cavia porcellus; assay: Antagonistic activity was measured by the reversal inhibition of EFS stimulated neuronal cholinergic contraction of guinea pig tracheal rings at 300 uM; format: functional; conditions: Trachea
Cavia porcellus [3] = species: Cavia porcellus; assay: Antagonistic activity was measured by the reversal inhibition of EFS stimulated neuronal cholinergic contraction of guinea pig tracheal rings; format: functional; conditions: Trachea

Row | Structure (SMILES) | IC50 [1] [µM] | IC50 (Cavia porcellus [3]) [µM] | inhibition at 300 µM (Cavia porcellus [2]) [%]
1 | CC1(C)CO[C@@H](CC(=O)O)CN1 | 1.1 | – | –
2 | CC[C@@H]1CO[C@H](CC(=O)O)CN1 | > 100 | – | –
3 | CCOC(OCC)P(=O)(O)CCCN | 62 | 65 | 50
4 | O=C(O)CC1CNC2(CCCC2)CO1 (racemic) | 11 | – | 97
5 | CC1(C)COC(CC(=O)O)CN1 (racemic) | 3 | 4.6 | –
6 | O=C(O)CC1CNC2(CC2)CO1 (racemic) | 37 | – | –
7 | CC1COC(CC(=O)O)CN1 (racemic; form 1) | 37 | – | 76
8 | CC1COC(CC(=O)O)CN1 (racemic; form 2) | 9 | – | –
9 | CC1(CO)COC(CC(=O)O)CN1 (racemic; form 2) | 5 | – | –
10 | CCC1(CO)COC(CC(=O)O)CN1 (racemic; form 2) | 100 | – | –

Now from value to compound, other results behind:

Row | IC50 [1] [µM] | IC50 (Cavia porcellus [3]) [µM] | Structure (SMILES) | inhibition at 300 µM (Cavia porcellus [2]) [%]
11 | 10 | – | CC[C@@H]1CO[C@@H](CC(=O)O)CN1 | 95
12 | > 100 | – | CC[C@H]1CO[C@H](CC(=O)O)CN1 | –
13 | > 100 | – | O=C(O)CC1CNCCO1 (stereo not given) | 46
14 | 2 | 4.5 | CC1(CO)COC(CC(=O)O)CN1 (racemic; form 1) | –
15 | 19 | – | CCC1(CO)COC(CC(=O)O)CN1 (racemic; form 1) | 99
16 | > 100 | – | CC1(C)COC(CC(=O)O)CN1 (stereo in doubt; 24) | –
